According to ChEMBL document CHEMBL5257030, “Antioxidant, anticancer activities and mechanistic studies of the flavone glycoside diosmin and its oxidovanadium(IV) complex. Interactions with bovine serum albumin” (Bioorg Med Chem, 2016):
The source made the active and inactive calls. The rule behind the calls is not given here.

How the values were obtained:
[1] = Antioxidant activity assessed as reduction in PMS induced superoxide anion activity preincubated for 15 mins followed by PMS addition and measured after 5 mins by NBT assay; type: functional; conditions: time 20.0 min
[2] = Antioxidant activity assessed as DPPH radical scavenging activity at 100 uM incubated for 60 mins in dark relative to control; type: functional
[3] = Antioxidant activity assessed as reduction in ascorbate-iron-H2O2-mediated hydroxy radical generation at 100 uM after 30 mins by thiobarbituric acid method; type: functional
[4] = Antioxidant activity assessed as delay in time of AAPH-induced pyranine consumption at 100 uM by spectrophotometric analysis; type: functional
A549 [5] = test: Cytotoxicity against human A549 cells assessed as reduction in cell viability up to 100 uM measured after 24 hrs by crystal violet staining based assay; type: functional
A549 [6] = test: Cytotoxicity in human A549 cells assessed as increase in DHR123 oxidation to form rhodamine 123 measured after 30 mins by fluorescence spectroscopy; type: functional, cell-based
MDA-MB-231 [7] = test: Antiproliferative activity against human MDA-MB-231 cells assessed as inhibition of cell growth measured after 24 hrs by MTT assay; type: functional, cell-based; conditions: MDA-MB-231, 24 h
SK-BR-3 [8] = test: Antiproliferative activity against human SK-BR-3 cells assessed as inhibition of cell growth measured after 24 hrs by MTT assay; type: functional, cell-based; conditions: SK-BR-3, 24 h
T47D [9] = test: Antiproliferative activity against human T47D cells assessed as inhibition of cell growth measured after 24 hrs by MTT assay; type: functional, cell-based
T47D [10] = test: Cytotoxicity against human T47D cells assessed as ROS production at 10 uM after 24 hrs by CMH2DCFDA probe-based fluorescence assay relative to control; type: functional
T47D [11] = test: Cytotoxicity against human T47D cells assessed as disruption of mitochondrial membrane potential by measuring TMRM level in mitochondria at 10 uM after 24 hrs by fluorescence assay relative to control; type: functional
T47D [12] = test: Cytotoxicity against human T47D cells assessed as caspase3/7 activation at 10 uM after 24 hrs by fluorescence assay relative to control; type: functional
SK-BR-3 [13] = test: Cytotoxicity against human SK-BR-3 cells assessed as ROS production at 10 uM after 24 hrs by CMH2DCFDA probe-based fluorescence assay relative to control; type: functional
SK-BR-3 [14] = test: Cytotoxicity against human SK-BR-3 cells assessed as disruption of mitochondrial membrane potential by measuring TMRM level in mitochondria at 10 uM after 24 hrs by fluorescence assay relative to control; type: functional
SK-BR-3 [15] = test: Cytotoxicity against human SK-BR-3 cells assessed as caspase3/7 activation at 10 uM after 24 hrs by fluorescence assay relative to control; type: functional
MDA-MB-231 [16] = test: Cytotoxicity against human MDA-MB-231 cells assessed as ROS production at 10 uM after 24 hrs by CMH2DCFDA probe-based fluorescence assay relative to control; type: functional
MDA-MB-231 [17] = test: Cytotoxicity against human MDA-MB-231 cells assessed as disruption of mitochondrial membrane potential by measuring TMRM level in mitochondria at 10 uM after 24 hrs by fluorescence assay relative to control; type: functional
MDA-MB-231 [18] = test: Cytotoxicity against human MDA-MB-231 cells assessed as caspase3/7 activation at 10 uM after 24 hrs by fluorescence assay relative to control; type: functional
Albumin [19] = target: T1, Albumin (Bos taurus, UniProt P02769); test: Binding affinity to bovine serum albumin assessed as Stem-Volmer quenching constant at 298 K after 1 hr by luminescence spectrometric analysis; conditions: cattle
T1 sequence (P02769 whole entry): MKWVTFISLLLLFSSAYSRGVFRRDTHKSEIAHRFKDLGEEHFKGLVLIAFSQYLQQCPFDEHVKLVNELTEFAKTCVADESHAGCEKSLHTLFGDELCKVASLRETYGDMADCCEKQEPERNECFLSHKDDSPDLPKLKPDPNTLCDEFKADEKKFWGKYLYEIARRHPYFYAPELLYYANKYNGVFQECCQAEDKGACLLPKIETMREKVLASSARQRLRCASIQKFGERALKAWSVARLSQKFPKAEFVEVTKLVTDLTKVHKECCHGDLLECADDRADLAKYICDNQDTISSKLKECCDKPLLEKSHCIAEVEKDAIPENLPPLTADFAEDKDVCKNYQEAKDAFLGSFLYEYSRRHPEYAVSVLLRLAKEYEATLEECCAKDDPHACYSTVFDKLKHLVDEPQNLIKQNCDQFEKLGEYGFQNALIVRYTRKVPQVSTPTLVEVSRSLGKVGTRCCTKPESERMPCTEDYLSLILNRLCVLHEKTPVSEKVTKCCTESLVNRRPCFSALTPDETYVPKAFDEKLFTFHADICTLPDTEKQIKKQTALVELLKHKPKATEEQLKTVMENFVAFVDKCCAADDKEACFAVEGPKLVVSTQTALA

Albumin [20] = target: T1, Albumin; test: Binding affinity to bovine serum albumin assessed as Stem-Volmer quenching constant at 303 K after 1 hr by luminescence spectrometric analysis; conditions: cattle
Albumin [21] = target: T1, Albumin; test: Binding affinity to bovine serum albumin assessed as Stem-Volmer quenching constant at 310 K after 1 hr by luminescence spectrometric analysis; conditions: cattle
Albumin [22] = target: T1, Albumin; test: Binding affinity to bovine serum albumin assessed as quenching rate constant at 298 K after 1 hr by luminescence spectrometric analysis; conditions: cattle
Albumin [23] = target: T1, Albumin; test: Binding affinity to bovine serum albumin assessed as quenching rate constant at 303 K after 1 hr by luminescence spectrometric analysis; conditions: cattle
Albumin [24] = target: T1, Albumin; test: Binding affinity to bovine serum albumin assessed as quenching rate constant at 310 K after 1 hr by luminescence spectrometric analysis; conditions: cattle
Albumin [25] = target: T1, Albumin; test: Binding affinity to bovine serum albumin assessed as association constant at 298 K after 1 hr by luminescence spectrometric analysis; conditions: cattle
Albumin [26] = target: T1, Albumin; test: Binding affinity to bovine serum albumin assessed as association constant at 303 K after 1 hr by luminescence spectrometric analysis; conditions: cattle
Albumin [27] = target: T1, Albumin; test: Binding affinity to bovine serum albumin assessed as association constant at 310 K after 1 hr by luminescence spectrometric analysis; conditions: cattle
A549 [28] = test: Antiproliferative activity against human A549 cells after 72 hrs by Alamar blue assay; type: functional, cell-based; conditions: A549, 72 h
Albumin [29] = target: T1, Albumin; test: Binding affinity to bovine serum albumin assessed as change in enthalpy; conditions: cattle
Albumin [30] = target: T1, Albumin; test: Binding affinity to bovine serum albumin assessed as free energy change at 298 K; conditions: cattle
Albumin [31] = target: T1, Albumin; test: Binding affinity to bovine serum albumin assessed as free energy change at 303 K; conditions: cattle
Albumin [32] = target: T1, Albumin; test: Binding affinity to bovine serum albumin assessed as free energy change at 310 K; conditions: cattle

IC50 (MDA-MB-231 [7]): 70 µM
IC50 (SK-BR-3 [8]): > 100 µM
IC50 (T47D [9]): > 100 µM
KSV (Albumin [19]): 3.08 10^4L/mol
KSV (Albumin [20]): 1.95 10^4L/mol
KSV (Albumin [21]): 1.18 10^4L/mol
Kq (Albumin [22]): 3.08 10^12L/mol/s
Kq (Albumin [23]): 1.95 10^12L/mol/s
Kq (Albumin [24]): 1.18 10^12L/mol/s
Ka (Albumin [25]): 1.84 10^4L/mol
Ka (Albumin [26]): 0.88 10^4L/mol
Ka (Albumin [27]): 0.19 10^4L/mol
IC50 (A549 [28]): > 40 µM
deltaH (Albumin [29]): -35.057 kcal/mol
deltaG (Albumin [30]): -5.863 kcal/mol
deltaG (Albumin [31]): -5.373 kcal/mol
deltaG (Albumin [32]): -4.687 kcal/mol
SMILES: COc1ccc(-c2cc(=O)c3c(O)cc(O[C@@H]4O[C@H](CO[C@@H]5O[C@@H](C)[C@H](O)[C@@H](O)[C@H]5O)[C@@H](O)[C@H](O)[C@H]4O)cc3o2)cc1O [DIOSMIN]
Activity [1]: inactive
Activity [2]: 14%
Activity [3]: inactive
TIME [4]: 0.0233 h
Activity (A549 [5]): inactive
Activity (A549 [6]): inactive
Activity (T47D [10]): 105%
Activity (T47D [11]): 96%
Activity (T47D [12]): 99%
Activity (SK-BR-3 [13]): 104%
Activity (SK-BR-3 [14]): 78%
Activity (SK-BR-3 [15]): 116%
Activity (MDA-MB-231 [16]): 110%
Activity (MDA-MB-231 [17]): 104%
Activity (MDA-MB-231 [18]): 106%
